SMILES strings stand for the structures.

A short description of series [1]: Release of parent dCDN from prodrug 9 initiated by DTT or GSH (HPLC). The series is classed as in vitro ADME. The protocol:
(§1) To analyze the reduction dependency, we performed the in vitro cleavage test by incubating prodrug 9 with a reductive substance such as GSH or DTT and cell lysates at 37 °C and then determined the change with HPLC. […] As the reductive substance or cell lysates were added, the peak for prodrug 9 disappeared and the new peaks at 1.2 min appeared in 0.5 h and 2 h, respectively. The released parent dCDN was also confirmed with 3′,3′-c-di-dAMP through UPLC-MS (Figure S1).
Amounts of 10 mM DTT or GSH were added into prodrug 9 (100 μM) in an air-bath incubator at 37 °C for 0.5 h. Afterwards, 10 μL of each mixture was injected into HPLC for analysis. The HPLC methodology was the same as above.
(§2) Figure 3 Parent dCDNs release in GSH, DTT (a), and cell lysates (b). An amount of 100 μM prodrug 9 was added into the 10 mM GSH, 10 mM DTT, and cell lysates for various times (0.5 h and 2 h) at 37 °C and analyzed with HPLC (Agilent 1260, Santa Clara, CA, USA).

Series [2] can be described thus: Release of parent dCDN from prodrug 9 in cell lysates (HPLC). It is filed as in vitro ADME. Conditions: 100 μM prodrug, 37 °C. The protocol: as §1
Prodrug 9 release parent drug initiated by cell lysates, DTT, and GSH. HEK 293T cells were plated in a 6-well plate at a density of 10^6 cell per well. After 48 h, the culture media was removed and washed with 500 μL PBS buffer. Cells were collected into 1.5 mL microtubes. An amount of 200 μL weak RIPA lysis buffer containing 1 mM protease inhibitor PMSF (LEAGENE, Trenton, NJ, USA) was added to each tube for 30 min. After centrifugation at 13,000 rpm for 10 min, the supernatant (180 μL) was transferred into a new tube. An amount of 100 μM prodrug 9 was added into the cell lysate (60 μL) in an air-bath incubator at 37 °C. […]
as §2

Series [3] deals with THP-1 cells. The series is described as follows: CCK8 cell viability, THP-1 cells. The series is classed as cell-based. Conditions: 10 μM, 24 h. The method, then:
Cell viability of THP-1 and HEK293T cells. A total of 5 × 10^3 HEK293T cells or THP-1 cells were seeded in 96-well plates. […] Cell counting kit-8 (CCK8) (US EVERBRIGHT, Newport Beach, CA, USA, c6005) was then used to quantitatively assess the cell viability through the OD value at 450 nm. The HEK293T cell line was obtained from American Type Culture Collection (ATCC).
Figure 8 Cell viability of THP-1 and HEK293T cells stimulated by prodrug 9 and 2′,3′-cGAMP. (a) A total of 5 × 10^3 THP-1 cells or (b) HEK293T cells were seeded in 96-well plates. Cells were stimulated with prodrug 9 (10 μM), 3′,3′-c-di-dAMP (100 μM), and 2′,3′-cGAMP (100 μM) for 24 h. Then, cell counting kit-8 (CCK8) (US EVERBRIGHT, c6005) was used to quantitatively assess cell viability through the OD value at 450 nm. Data are presented as mean ± SD, n = 3.

Series [4] relates to THP-1 cells. The series is described as follows: Western blot of STING/TBK1/IRF3 phosphorylation in THP-1 cells. It is filed as cell-based. Conditions: 4 h. The method, then: Western blotting. THP-1 cells (8 × 10^5 cells/well) were seeded into a 6-well plate and treated with prodrug 9, 2′,3′-cGAMP, 3′,3′-c-di-dAMP, and ADU-S100 for 4 h. The total proteins from the cells were extracted via cold RIPA buffer supplemented with protease inhibitors. Cell lysates were harvested via 1 × SDS-PAGE sample loading buffer (Cat. code: P0015, Beyotime, Shanghai, China), boiled at 100 °C for 10 min. Cell lysates were run on 10% SDS-PAGE gels and transferred onto NC membranes. The membranes were blocked with 5% BSA for 1 h and incubated with primary antibodies against STING, phospho-STING (Ser366), TBK1, phospho-TBK1 (Ser172), IRF3, phospho-IRF3 (Ser386), or β-actin overnight at 4 °C. Horseradish peroxidase-conjugated secondary antibodies were used as secondary antibodies. Finally, the membrane was detected using enhanced chemiluminescence for imaging.
Figure 9 Prodrug 9 activated the STING signalling pathway through stimulating the phosphorylation of STING, TBK1, and IRF3. Prodrug 9 (10 μM), 2′,3′-cGAMP (100 μM), 3′,3′-c-di-dAMP (100 μM), and ADU-S100 (10 μM) were used to treat THP-1 cells for 4 h, and the levels of total STING, phospho-STING, total TBK1, phospho-TBK1, total IRF3, phospho-IRF3, and β-actin were detected via Western blotting. The raw images of western blots were also placed in pages S16–S22 in Supplementary Materials.
Figure S4. Relative quantification of phospho-STING, phospho-TBK1, phospho-IRF3. Prodrug 9 (10
μM), 2′,3′-cGAMP (100 μM), 3′,3′-c-di-dAMP (100 μM) and ADU-S100 (10 μM) were used to treat
THP-1 cells for 4 h, and the levels of total STING, phospho-STING, total TBK1, phospho-TBK1, total
IRF3, phospho-IRF3, and β-actin were assessed by western blotting. […]

Setting [5] is: THP-1, prodrug 9 10 μM vs 2′,3′-cGAMP 100 μM.
[6] abbreviates: THP-1, prodrug 9 10 μM vs 3′,3′-c-di-dAMP 100 μM.
Where [7] appears, read: THP-1, prodrug 9 10 μM vs ADU-S100 10 μM.

Regarding `Nc1ncnc2c1ncn2C1CC2OP(=O)(OCCSSc3ccccn3)OCC3OC(n4cnc5c(N)ncnc54)CC3OP(=O)(OCCSSc3ccccn3)OCC2O1` (stereo not shown) [prodrug 9], in series [1] (100 μM prodrug, 10 mM GSH or DTT, 37 °C), the “time at which prodrug peak disappeared and parent dCDN peak appeared” value is 0.5 h. For the same compound, the “time to decompose and release the parent dCDN” value in series [1] (reductive substance GSH or DTT) is recorded as 30 min. For the same compound, the “time at which prodrug peak disappeared and parent dCDN peak appeared” value in series [2] is reported as 2 h. Moreover, the “cell viability (CCK8), THP-1 cells” value with THP-1 cells [3] is given as “no significant influence on the growth”. In the series on THP-1 cells [4] (setting [5]), the “relative expression of phospho-IRF3, fold compared to 2′,3′-cGAMP” value worked out at 19.8 fold; the “relative expression of phospho-STING, fold compared to 2′,3′-cGAMP” value came to 20.8 fold; the “relative expression of phospho-TBK1, fold compared to 2′,3′-cGAMP” value is given as 6.9 fold. In the series on THP-1 cells [4] (setting [6]), the “relative expression of phospho-IRF3, fold compared to 3′,3′-c-di-dAMP” value is given as 6.5 fold; the “relative expression of phospho-STING, fold compared to 3′,3′-c-di-dAMP” value is on record as 5.5 fold; the “relative expression of phospho-TBK1, fold compared to 3′,3′-c-di-dAMP” value is reported as 3.6 fold. Also, in the series with THP-1 cells [4] (setting [7]), the “relative expression of phospho-IRF3, fold compared to ADU-S100” value was 1.8 fold; the “relative expression of phospho-STING, fold compared to ADU-S100” value was 1.6 fold; the “relative expression of phospho-TBK1, fold compared to ADU-S100” value is 1.3 fold.

The values are drawn from paper PMC10778758, “Dithioethanol (DTE)-Conjugated Deoxyribose Cyclic Dinucleotide Prodrugs (DTE-dCDNs) as STING Agonist” (International Journal of Molecular Sciences, 2023).
